Laboratory results published in patent US8614206B2 (Genentech, Inc., priority 2011, dated 2013).
Read-outs that look alike come from different tables or passages of the source.

Assays:
[1] = test system: MM1.S (multiple myeloma) cells; test: In vitro cell proliferation, MM1.S multiple myeloma cells (CellTiter-Glo, ATP); assay type: cell-based; conditions: read-out: Prolif MM1S ATP (EC50)
Procedure: BaF3, a murine interleukin-3 dependent pro-B cell line, parental cells, BaF3 PIM1 cells, BaF3 PIM2 cells, and MM1.S (multiple myeloma) cells were seeded at 2 k/well, 5 k/well, 5 k/well, and 10 k/well respectively, in a 384-well plate, at 45 μL/well. Test compound was added at 5 μL/well. BaF3 cells (parental and transfected) were incubated overnight, while MM1.S cells were incubated for 72 hours at 37° C., 5% CO2. […] IC50/EC50 values for the test compound were calculated.

BaF3 parental cells = test: In vitro cell proliferation, BaF3 parental line + IL3 (CellTiter-Glo); assay type: cell-based, murine
Procedure: BaF3 parental line was obtained from the DSMZ repository. BaF3 lines transfected with PIM 1 or PIM2 were generated. Mouse IL-3 was purchased from R&D Systems. G418 was purchased from Clontech. Media for BaF3 parental line contained RPMI, 10% FBS, 2 mM L-Glutamine, 2 ng/mL mIL-3. Media for BaF3 PIM1 & 2 lines contained RPMI, 10% FBS, 2 mM L-Glutamine, 250 μg/mL.
BaF3, a murine interleukin-3 dependent pro-B cell line, parental cells, BaF3 PIM1 cells, BaF3 PIM2 cells, and MM1.S (multiple myeloma) cells were seeded at 2 k/well, 5 k/well, 5 k/well, and 10 k/well respectively, in a 384-well plate, at 45 μL/well. Test compound was added at 5 μL/well. BaF3 cells (parental and transfected) were incubated overnight, while MM1.S cells were incubated for 72 hours at 37° C., 5% CO2. CELL TITER GLO® Reagent (Promega) was added at 50 μL/well, the plates were incubated for 30 minutes, and their luminescence read on an HT Analyst. IC50/EC50 values for the test compound were calculated.

[2] = Mus musculus, BaF3, BaF3 parental cells with IL-3, incubated overnight, read-out: Prolif BaF3 + IL3 (IC50)
[3] = BaF3 parental cells with IL-3, incubated overnight, read-out: Prolif BaF3 + IL3 (IC50)
[4] = Mus musculus, BaF3, BaF3 parental cells with IL-3, incubated overnight, read-out: Prolif BaF3 IL3 (IC50)

Row | SMILES | EC50 ([1]; 72 hours) [µM] | IC50 (BaF3 parental cells; [2]) [µM] | EC50 ([1]; Homo sapiens, MM1.S, 72 h) [µM] | IC50 (BaF3 parental cells; [3]) [µM] | IC50 (BaF3 parental cells; [4]) [µM]
1 | CNC1CCN(c2c(NC(=O)c3nc(-c4c(F)cccc4F)sc3N)cnn2C)CC(F)(F)C1 (centres unmarked) [Example 408, 5-amino-N-[5-[3,3-difluoro-5-(methylamino)azepan-1-yl]-1-methyl-pyrazol-4-yl]-2-(2,6-difluorophenyl)thiazole-4-carboxamide] | 2.4 | 16.5 |  |  | 
2 | Cn1ncc(NC(=O)c2nc(-c3c(F)cccc3F)sc2N)c1N1CC[C@@H](O)[C@H](O)CC1 [Example 490, 5-amino-2-(2,6-difluorophenyl)-N-(5-((4R,5R)-4,5-dihydroxyazepan-1-yl)-1-methyl-1H-pyrazol-4-yl)thiazole-4-carboxamide] |  | > 25 | 8.8 |  | 
3 | COC1CCN(c2c(NC(=O)c3nc(-c4ncccc4F)sc3N)cnn2C)CCC1N (racemic) [Example 323, 5-amino-N-[5-(4-amino-5-methoxy-azepan-1-yl)-1-methyl-pyrazol-4-yl]-2-(3-fluoro-2-pyridyl)thiazole-4-carboxamide] |  | > 25 | 0.165 |  | 
4 | COC1CC(N)CCN(c2c(NC(=O)c3nc(-c4c(F)cccc4F)sc3N)cnn2C)C1 (centres unmarked) [Example 321, 5-amino-N-[5-(5-amino-3-methoxy-azepan-1-yl)-1-methyl-pyrazol-4-yl]-2-(2,6-difluorophenyl)thiazole-4-carboxamide] | 0.00846 |  |  | > 25 | 
5 | Cn1ncc(NC(=O)c2nc(-c3c(F)cccc3F)sc2N)c1N1CCC(N)C(CO)CC1 (centres unmarked) [Example 513, 5-amino-N-[5-[4-amino-5-(hydroxymethyl)azepan-1-yl]-1-methyl-pyrazol-4-yl]-2-(2,6-difluorophenyl)thiazole-4-carboxamide] |  | > 25 | 7.2 |  | 
6 | CCOC1CCN(c2c(NC(=O)c3nc(-c4c(F)cccc4F)sc3N)cnn2C)CCC1N (centres unmarked) [Example 515, 5-amino-N-[5-(4-amino-5-ethoxy-azepan-1-yl)-1-methyl-pyrazol-4-yl]-2-(2,6-difluorophenyl)thiazole-4-carboxamide] | 0.0733 |  |  | 14.7 | 
7 | CC1CC(N)CCN(c2c(NC(=O)c3nc(-c4c(F)cccc4F)sc3N)cnn2C)C1 (centres unmarked) [Example 453, 5-amino-N-[5-(5-amino-3-methyl-azepan-1-yl)-1-methyl-pyrazol-4-yl]-2-(2,6-difluorophenyl)thiazole-4-carboxamide] |  | 14.1 | 3.2 |  | 
8 | Cn1ncc(NC(=O)c2nc(-c3c(F)cccc3F)sc2N)c1N1CC[C@H](O)[C@@](C)(N)CC1 [Example 424, 5-amino-N-(5-((4S,5S)-4-amino-5-hydroxy-4-methylazepan-1-yl)-1-methyl-1H-pyrazol-4-yl)-2-(2,6-difluorophenyl)thiazole-4-carboxamide] |  | > 25 | 6.5 |  | 
9 | Cn1ncc(NC(=O)c2nc(-c3c(F)cccc3F)sc2N)c1N1CCC(N)CC2(CCO2)C1 (single isomer, unassigned) [Example 452, 5-amino-N-[5-(6-amino-1-oxa-9-azaspiro[3.6]decan-9-yl)-1-methyl-pyrazol-4-yl]-2-(2,6-difluorophenyl)thiazole-4-carboxamide] | 0.0793 |  |  | 24.7 | 
10 | Cn1ncc(NC(=O)c2nc(-c3c(F)cccc3F)sc2N)c1N1CCNCC2(CC2)C1 [Example 313, 5-amino-N-[5-(5,8-diazaspiro[2.6]nonan-8-yl)-1-methyl-pyrazol-4-yl]-2-(2,6-difluorophenyl)thiazole-4-carboxamide] |  | 17 | 6.4 |  | 
11 | Cn1ncc(NC(=O)c2nc(-c3c(F)cccc3F)sc2N)c1N1CCC(N)CC2(CCO2)C1 (single isomer, unassigned) [Example 448, 5-amino-N-[5-(6-amino-1-oxa-9-azaspiro[3.6]decan-9-yl)-1-methyl-pyrazol-4-yl]-2-(2,6-difluorophenyl)thiazole-4-carboxamide] | 1.4 | > 25 |  |  | 
12 | COC1CC(N)CCN(c2c(NC(=O)c3nc(-c4c(F)cccc4F)sc3N)cnn2C)C1 (centres unmarked) [Example 317, 5-amino-N-[5-(5-amino-3-methoxy-azepan-1-yl)-1-methyl-pyrazol-4-yl]-2-(2,6-difluorophenyl)thiazole-4-carboxamide] | 0.663 |  |  | > 25 | 
13 | CNCC1CCN(c2c(NC(=O)c3nc(-c4c(F)cccc4F)sc3N)cnn2C)CC1 [Example 101, 5-Amino-2-(2,6-difluorophenyl)-N-(1-methyl-5-(4-((methylamino)methyl)piperidin-1-yl)-1H-pyrazol-4-yl)thiazole-4-carboxamide] |  |  | 17.9 |  | 19.5
14 | Cn1ncc(NC(=O)c2nc(-c3c(F)cccc3F)sc2N)c1N1CCC(N)C(O)CC1 (single isomer, unassigned) [Example 327, 5-amino-N-[5-(4-amino-5-hydroxy-azepan-1-yl)-1-methyl-pyrazol-4-yl]-2-(2,6-difluorophenyl)thiazole-4-carboxamide] | 14.7 | > 25 |  |  | 
15 | COC1(C)CC(N)CCN(c2c(NC(=O)c3nc(-c4c(F)cccc4F)sc3N)cnn2C)C1 (single isomer, unassigned) [Example 353, 5-amino-N-[5-(5-amino-3-methoxy-3-methyl-azepan-1-yl)-1-methyl-pyrazol-4-yl]-2-(2,6-difluorophenyl)thiazole-4-carboxamide] | 0.139 |  |  | 25 | 
16 | COC1(C)CCN(c2c(NC(=O)c3nc(-c4c(F)cccc4F)sc3N)cnn2C)CCC1N (centres unmarked) [Example 485, 5-amino-N-[5-(5-amino-4-methoxy-4-methyl-azepan-1-yl)-1-methyl-pyrazol-4-yl]-2-(2,6-difluorophenyl)thiazole-4-carboxamide] |  | 11.6 | 0.415 |  | 
17 | Cn1ncc(NC(=O)c2nc(-c3c(F)cccc3F)sc2N)c1N1CCC(N)C(C(F)F)CC1 (single isomer, unassigned) [Example 512, 5-amino-N-[5-[4-amino-5-(difluoromethyl)azepan-1-yl]-1-methyl-pyrazol-4-yl]-2-(2,6-difluorophenyl)thiazole-4-carboxamide] |  |  | 2 | 24.6 | 
18 | Cn1ncc(NC(=O)c2nc(-c3c(F)cccc3F)sc2N)c1N1CCCC(C)(N)CC1 (racemic) [Example 411, 5-amino-N-[5-(4-amino-4-methyl-azepan-1-yl)-1-methyl-pyrazol-4-yl]-2-(2,6-difluorophenyl)thiazole-4-carboxamide] |  | 17.7 | 1.8 |  | 
19 | [2H]C([2H])([2H])OC1CCN(c2c(NC(=O)c3nc(-c4c(F)cccc4F)sc3N)cnn2C)CCC1N (centres unmarked) [Example 492, 5-amino-N-[5-[4-amino-5-(trideuteriomethoxy)azepan-1-yl]-1-methyl-pyrazol-4-yl]-2-(2,6-difluorophenyl)thiazole-4-carboxamide] |  | 20.4 | 0.0737 |  | 
20 | Cn1ncc(NC(=O)c2nc(-c3c(F)cccc3F)sc2N)c1N1CC2CNCC(C1)O2 [Example 354, 5-amino-2-(2,6-difluorophenyl)-N-[1-methyl-5-(9-oxa-3,7-diazabicyclo[3.3.1]nonan-3-yl)pyrazol-4-yl]thiazole-4-carboxamide] |  | 14.4 | 0.168 |  | 
21 | CC[C@H]1CN(c2c(NC(=O)c3nc(-c4c(F)cccc4F)sc3N)cnn2C)CC[C@@]1(CN)OC [Example 496, 5-amino-N-(5-((3S,4R)-4-(aminomethyl)-3-ethyl-4-methoxypiperidin-1-yl)-1-methyl-1H-pyrazol-4-yl)-2-(2,6-difluorophenyl)thiazole-4-carboxamide] |  | 11.6 | 19.6 |  | 
22 | [2H]C([2H])([2H])n1ncc(NC(=O)c2nc(-c3c(F)cccc3F)sc2N)c1N1CC[C@@H](N)[C@H](F)CC1 [Example 451, 5-amino-N-[5-[(4R,5R)-4-amino-5-fluoro-azepan-1-yl]-1-(trideuteriomethyl)pyrazol-4-yl]-2-(2,6-difluorophenyl)thiazole-4-carboxamide] |  | 9.4 | 0.124 |  | 
23 | COC1CCC(c2c(NC(=O)c3nc(-c4ccccc4F)sc3N)cnn2C)CCC1N (centres unmarked) [Example 504] |  | 15.3 | 10.5 |  | 
24 | Cn1ncc(NC(=O)c2nc(-c3c(F)cccc3F)sc2N)c1N1CCC(N)C(O)CC1 (single isomer, unassigned) [Example 337, 5-amino-N-[5-(4-amino-5-hydroxy-azepan-1-yl)-1-methyl-pyrazol-4-yl]-2-(2,6-difluorophenyl)thiazole-4-carboxamide] | 0.0308 |  |  | 25 | 
25 | CNC1CCN(c2c(NC(=O)c3nc(-c4c(F)cccc4F)sc3N)cnn2C)CC(F)(F)C1 (centres unmarked) [Example 409, 5-amino-N-[5-[3,3-difluoro-5-(methylamino)azepan-1-yl]-1-methyl-pyrazol-4-yl]-2-(2,6-difluorophenyl)thiazole-4-carboxamide] | 0.903 |  |  | 10.8 | 
26 | Cn1ncc(NC(=O)c2nc(-c3c(F)cccc3F)sc2N)c1N1CCC[C@H](N)[C@@H](F)C1 (single isomer, unassigned) [Example 158] |  |  | 3 |  | 11.6
27 | Cn1ncc(NC(=O)c2nc(-c3c(F)cccc3F)sc2N)c1N1CC[C@@H](O)[C@@H](O)CC1 [Example 457, 5-amino-2-(2,6-difluorophenyl)-N-(5-((4R,5S)-4,5-dihydroxyazepan-1-yl)-1-methyl-1H-pyrazol-4-yl)thiazole-4-carboxamide] |  | > 25 | 4 |  | 
28 | Cn1ncc(NC(=O)c2nc(-c3c(F)cccc3F)sc2N)c1N1CCC2(CCNC2)CC1 [Example 124, 5-Amino-2-(2,6-difluorophenyl)-N-(1-methyl-5-(2,8-diazaspiro[4.5]decan-8-yl)-1H-pyrazol-4-yl)thiazole-4-carboxamide] |  |  | 1.4 |  | 22.1
